In publication PMC5923171, “Novel Zinc-Attenuating Compounds as Potent Broad-Spectrum Antifungal Agents with In Vitro and In Vivo Efficacy” (Antimicrobial Agents and Chemotherapy, 2018):
In brackets after ≈: the same amount, converted by molar mass.

Tests used:
[1] = tested on: C. glabrata Cg003; test: Antifungal susceptibility testing (MIC); format: cell-based, Candida glabrata; details: Nakaseomyces glabratus, CG003, 24 h
Procedure: (§1) Antifungal susceptibility testing was carried out as described previously ([38], [39]), with a few modifications. Briefly, for each yeast or mold growth inhibition assay, frozen stocks of yeast cells or spores were diluted to a final concentration of 0.5 × 10^5 to 2.5 × 10^5 CFU/ml in sterile water. ZAC989, ZAC307, and ZAC623 were dissolved in DMSO to 10 mM stocks from which half-log serial dilutions were prepared. Growth assays were subsequently performed by pipetting 3 μl of compound dissolved in DMSO (giving a final concentration of 1.5% DMSO), 100 μl of cell-spore suspension, and 97 μl of 2× RPMI medium (20.8 g/liter of RPMI 1640 medium, 69.06 g/liter of morpholinepropanesulfonic acid [MOPS], 36 g/liter of glucose) into a microtiter plate that was incubated for 24 h (yeasts) or 48 to 72 h (molds) at 34°C. Fungal growth was determined spectrophotometrically by optical density reading of each well at a wavelength of 492 nm on a Victor X5 (Perkin-Elmer) plate reader. […] Standard errors between repeated experiments were generally below 5%. The growth effect of exogenous addition of various divalent metals was evaluated by performing the antifungal susceptibility assay in the presence of 5 μM ZAC989 or ZAC307 and with increasing concentrations (0.003 to 50 μM) of ZnSO4, CuSO4, (NH4)2Fe(SO4)2, MgCl2, and CaCl2.

[2] = tested on: C. glabrata ATCC 90030; test: Antifungal susceptibility testing (MIC); format: cell-based, Candida glabrata; details: Nakaseomyces glabratus, ATCC90030; at least 50% growth inhibition, RPMI, 24 h, 34°C
Procedure: as §1

[3] = tested on: C. albicans; test: Fungal growth recovery after prolonged exposure (MFC); format: cell-based, Candida albicans; details: for growth recovery after exposure: 5 days of exposure, then compound-free medium (EDTA: during compound incubation, 0.22 to 22 μg/ml)
[4] = tested on: C. parapsilosis ATCC 22019; test: Antifungal susceptibility testing (MIC); format: cell-based, Candida parapsilosis; details: Lodderomyces parapsilosis, ATCC22019; at least 50% growth inhibition, RPMI, 24 h, 34°C
Procedure: as §1

[5] = Solubility in water at millimolar concentrations; format: physicochemical
[6] = tested on: C. albicans BWP17; test: Zinbo-5 assay (intracellular zinc); format: cell-based, Candida albicans; details: 9 μg/ml ZAC989, 7 μg/ml ZAC307 (25 μM), 15 μg/ml EDTA, 1.3 μg/ml TPEN; 1, 8 or 24 h
Procedure: C. albicans BWP17 was grown overnight in YPD medium at 30°C and 150 rpm. The cells were pelleted, washed in PBS buffer (D8537; Sigma) 3 times, and resuspended to an OD600 of 2.0. Two microliters of compound in DMSO was mixed with 100 μl of cell suspension and incubated statically for 1, 8, or 24 h at 30°C in a 96-well black plate. Thirty minutes before the end of the incubation period, 100 μl of 10 μM Zinbo-5 (sc-222425; Santa Cruz Biotechnology) in PBS buffer was added. […] The plate was then read on a plate reader (FLUOstar Optima; BMG Lab Technologies) with excitation at 355 nm and emission at 485 nm. The decrease in Zinbo-5 fluorescence was calculated relative to the untreated DMSO control.

[7] = cited from earlier work
[8] = tested on: HepG2 cells; test: Human hepatocyte (HepG2) proliferation assay; format: cell-based; details: for EC50: 24 h exposure, XTT
Procedure: In each well of a 96-well tissue culture plate (GR-655180; Grenier), 10,000 human hepatocytes (HepG2) (85011430; […] Sigma]) supplemented with 2 mM L-[…]-020-1B; Biological Industries), 1% nonessential amino acids (XC-[…]/100; Biosera), and 10% fetal bovine serum (BI-04-007-1A; Biological Industries), and plates were incubated overnight at 37°C and 5% CO2. […] The plate was incubated for a further 24 h or 72 h at 37°C and 5% CO2. The medium was then replaced with 100 μl of freshly prepared 2,3-bis-(2-methoxy-4-nitro-5-sulfophenyl)-2H-tetrazolium-5-carboxanilide salt (XTT) sodium salt solution (0.5 mg/ml of XTT; […]; Sigma) in RPMI 1640 ([…]; Sigma-Aldrich) with 3.83 μg/ml of phenazine methosulfate ([…]; Sigma-Aldrich) and incubated 2 to 3 h at 37°C and 5% CO2 ([43]). The color reaction was measured on Victor X5 plate reader (Perkin-Elmer) at OD450, and the half-maximal effective concentration (EC50) was calculated. Tamoxifen (85256; Sigma) was used as a positive-control compound.

Row | SMILES | MIC [1] [µg/mL] | MIC [2] [µg/mL] | growth recovery after exposure [3] | MIC [4] [µg/mL] | solubility in water [5] | Zinbo-5 fluorescence [6] | zinc chelation (in words) [7] | effect on the proliferation of HepG2 cells (in words) [8] | EC50 [8] [µg/mL] | concentration above which exposed cells showed poor recovery ([3]; prolonged exposure)
1 | CN(C)c1cc(-n2nc(-c3ccccc3)cc2O)ncn1 [ZAC307, 2-[6-(dimethylamino)pyrimidin-4-yl]-5-phenyl-pyrazol-3-ol] | 0.2 (≈ 0.711 µM) | 0.2 (≈ 0.711 µM) | resume normal growth | 0.4 (≈ 1.42 µM) | poor solubility in water | decreased the Zinbo-5 fluorescence after only 1 h of incubation |  |  |  | 
2 | O=C(O)CN(CCN(CC(=O)O)CC(=O)O)CC(=O)O [EDTA] |  |  | resumed visible growth after 48 h of compound incubation |  |  | did not reduce the Zinbo-5 fluorescence | very potent zinc chelators | did not affect the proliferation of HepG2 cells | >29 | 
3 | Cc1cc(O)n(-c2cc(N3CC[C@H](Oc4cnccc4C#N)C3)ncn2)n1 [ZAC989, 3-[(3S)-1-[6-(5-hydroxy-3-methyl-pyrazol-1-yl)pyrimidin-4-yl]pyrrolidin-3-yl]oxy-pyridine-4-carbonitrile] | 0.6 (≈ 1.65 µM) | 0.9 (≈ 2.48 µM) | resume normal growth | 0.8 (≈ 2.2 µM) | poor solubility in water | time-dependent decrease in Zinbo-5 fluorescence |  |  | >36 | 
4 | c1ccc(CN(CCN(Cc2ccccn2)Cc2ccccn2)Cc2ccccn2)nc1 [TPEN, N,N,N’,N’-tetrakis(2-pyridylmethyl)-ethylenediamine] |  |  | poor recovery |  |  | time-dependent decrease in Zinbo-5 fluorescence | very potent zinc chelators |  |  | above 2 μg/ml
